# Where two headings read alike, the source gives them in different places.
# Legend:
# [1] = system: gel-filtered human platelets; experiment: Inhibition of the aggregation of gel-filtered human platelets after ADP or thrombin stimulation; assay type: cell-based; settings: Platelet
# Method: (§1) The compounds are tested in particular for their inhibitory effect on blood platelet aggregation and the adhesion of fibrinogen to blood platelets. Gel-filtered blood platelets from human donor blood are used, which are activated with ADP or thrombin.
# As a functional test, the inhibition of the aggregation of gel-filtered human platelets is measured after ADP or thrombin stimulation by the compounds according to the invention. The IC50 value of the inhibition is indicated (reference: G. A. Marguerie et al., J. Biol. Chem. 254 (1979), 5357-5363).
# (§2) On testing of the inhibition of fibrinogen binding and the inhibition of aggregation, the following results are obtained for the compounds of the examples which follow: […]
# [2] = biological target: T1, fibrinogen receptor (glycoprotein IIb/IIIa) (Homo sapiens, UniProt P05106+P08514); experiment: Inhibition of the binding of 125I-fibrinogen to its receptor (glycoprotein IIb/IIIa) on intact, gel-filtered human platelets; settings: after stimulation with ADP (10 μM)
# T1 construct: on intact, gel-filtered human platelets; from tissue; host or cells: gel-filtered blood platelets from human donor blood
# T1 sequence (P08514 32-887 limits assumed): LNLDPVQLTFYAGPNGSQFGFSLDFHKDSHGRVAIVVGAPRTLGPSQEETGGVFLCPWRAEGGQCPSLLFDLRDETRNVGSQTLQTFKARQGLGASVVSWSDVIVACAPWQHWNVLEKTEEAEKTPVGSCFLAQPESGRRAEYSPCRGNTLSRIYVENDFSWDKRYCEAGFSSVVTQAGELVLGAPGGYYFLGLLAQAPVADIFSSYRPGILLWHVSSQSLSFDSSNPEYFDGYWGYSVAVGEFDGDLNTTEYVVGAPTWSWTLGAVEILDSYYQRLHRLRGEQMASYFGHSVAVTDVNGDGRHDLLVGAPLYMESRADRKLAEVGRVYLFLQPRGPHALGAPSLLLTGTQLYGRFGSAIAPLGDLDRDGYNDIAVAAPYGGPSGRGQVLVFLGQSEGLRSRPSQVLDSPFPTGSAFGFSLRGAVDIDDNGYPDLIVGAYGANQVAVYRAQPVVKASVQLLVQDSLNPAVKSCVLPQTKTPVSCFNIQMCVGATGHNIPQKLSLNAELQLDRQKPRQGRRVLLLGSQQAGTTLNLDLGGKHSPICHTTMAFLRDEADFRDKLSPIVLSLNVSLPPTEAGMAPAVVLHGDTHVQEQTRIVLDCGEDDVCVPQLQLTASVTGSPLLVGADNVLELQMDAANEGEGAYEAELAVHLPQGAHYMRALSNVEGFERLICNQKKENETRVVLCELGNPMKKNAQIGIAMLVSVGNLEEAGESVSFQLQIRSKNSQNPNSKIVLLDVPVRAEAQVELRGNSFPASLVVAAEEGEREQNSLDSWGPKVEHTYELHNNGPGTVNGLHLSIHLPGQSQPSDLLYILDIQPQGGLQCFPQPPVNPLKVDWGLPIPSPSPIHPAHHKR
# T1 sequence (P08514 891-1039 limits assumed): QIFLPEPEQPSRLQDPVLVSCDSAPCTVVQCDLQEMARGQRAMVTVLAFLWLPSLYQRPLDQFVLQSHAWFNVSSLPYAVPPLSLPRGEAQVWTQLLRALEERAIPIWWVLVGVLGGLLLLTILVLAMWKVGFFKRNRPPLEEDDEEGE
# T1 sequence (P05106 27-788): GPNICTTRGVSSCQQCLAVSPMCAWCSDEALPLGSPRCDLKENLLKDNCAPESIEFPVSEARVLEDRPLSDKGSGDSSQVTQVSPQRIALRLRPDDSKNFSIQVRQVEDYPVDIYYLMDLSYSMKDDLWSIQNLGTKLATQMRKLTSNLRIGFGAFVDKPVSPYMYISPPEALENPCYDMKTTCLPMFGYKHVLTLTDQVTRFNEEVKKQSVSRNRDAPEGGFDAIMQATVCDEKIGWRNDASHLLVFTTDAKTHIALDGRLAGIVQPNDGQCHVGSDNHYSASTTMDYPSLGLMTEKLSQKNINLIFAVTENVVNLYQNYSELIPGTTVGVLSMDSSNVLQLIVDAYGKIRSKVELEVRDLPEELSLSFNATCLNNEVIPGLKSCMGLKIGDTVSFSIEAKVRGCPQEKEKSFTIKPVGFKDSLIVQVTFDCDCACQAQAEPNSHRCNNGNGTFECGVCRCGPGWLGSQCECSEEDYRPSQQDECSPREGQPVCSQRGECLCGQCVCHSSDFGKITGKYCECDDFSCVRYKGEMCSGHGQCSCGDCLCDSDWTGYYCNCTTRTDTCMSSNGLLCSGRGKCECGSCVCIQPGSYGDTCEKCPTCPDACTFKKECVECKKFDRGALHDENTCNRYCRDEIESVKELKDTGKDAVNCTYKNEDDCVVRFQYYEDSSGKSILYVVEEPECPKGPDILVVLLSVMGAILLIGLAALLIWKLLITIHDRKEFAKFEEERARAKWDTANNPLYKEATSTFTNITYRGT
# Method: as §1
# The inhibition of the binding of fibrinogen to its receptor (glycoprotein IIb/IIIa) on intact, gel-filtered human platelets by the compounds according to the invention is tested. The Ki value of the inhibition of binding of […] after stimulation with ADP (10 μM) is indicated. (Reference: J. S. Bennett and G. Vilaire, J. Clin. Invest. 64 (1979) 1393-1401; E. Kornecki et al., J. Biol. Chem. 256 (1981), 5695-5701; G. A. Marguerie et al., J. Biol. Chem. 254 (1979) 5357-5363; G. A. Marguerie et al., J. Biol. Chem. 255 (1980) 154-161.)
# as §2
# [3] = ADP stimulation, read-out: Inhibition of platelet aggregation, ADP (IC50)
# [4] = thrombin stimulation, read-out: Inhibition of platelet aggregation, thrombin (IC50)
smiles,measurement,setting,value
"CC(C)OC(=O)C[C@H](NC(=O)CN1C(=O)CC(Cc2ccc(C(=N)N)cc2)C1=O)C(=O)N[C@H](C(=O)OC(C)C)c1ccccc1 (stereo partly drawn) [Example 14, {3-[4-(Aminoiminomethyl)benzyl]-2,5-dioxopyrrolidin-1-yl}acetyl-L-(β-isopropyl)aspartyl-L-phenylglycine isopropyl ester]",IC50,[1]; [3],20 µM
same,IC50,[1]; [4],35 µM
"N=C(N)c1ccc(CC2CC(=O)N(CC(=O)NC(CC(=O)O)c3cccc(O)c3)C2=O)cc1 (racemic) [Example 16, 3-(R,S)-3-<{3-[4-(Aminoiminomethyl)benzyl]-2,5-dioxopyrrolidin-1-yl}acetamido>-3-(3-hydroxyphenyl)propionate]",IC50,[1]; [3],20 µM
same,IC50,[1]; [4],9 µM
"COC(=O)[C@H](Cc1c[nH]c2ccccc12)NC(=O)CN1C(=O)CC(Cc2ccc(C(=N)N)cc2)C1=O (stereo partly drawn) [Example 12, {3-[4-(Aminoiminomethyl)benzyl]-2,5-dioxopyrrolidin-1-yl}acetyl-L-tryptophan methyl ester]",IC50,[1]; [3],100 µM
same,IC50,[1]; [4],80 µM
"N=C(N)c1ccc(CC2CC(=O)N(CC(=O)N[C@@H](Cc3c[nH]c4ccccc34)C(=O)O)C2=O)cc1 (stereo partly drawn) [Example 18, {3-[4-(Aminoiminomethyl)benzyl]-2,5-dioxopyrrolidin-1-yl}acetyl-L-tryptophan]",IC50,[1]; [3],100 µM
same,IC50,[1]; [4],70 µM
"COC(=O)CC(NC(=O)CN1C(=O)CC(Cc2ccc(C(=N)N)cc2)C1=O)c1cccc(O)c1 (racemic) [Example 15, Methyl 3-(R,S)-3-<{3-[4-(aminoiminomethyl)benzyl]-2,5-dioxopyrrolidin-1-yl}acetamido>-3-(3-hydroxyphenyl)propionate]",IC50,[1]; [3],200 µM
same,IC50,[1]; [4],200 µM
"N=C(N)c1ccc(CC2CC(=O)N(CC(=O)NC(CCc3ccccc3)C(=O)O)C2=O)cc1 (racemic) [Example 17, {3-[4-(Aminoiminomethyl)benzyl]-2,5-dioxopyrrolidin-1-yl}acetyl-D,L-homophenylalanine]",IC50,[1]; [3],100 µM
same,IC50,[1]; [4],100 µM
"N=C(N)c1ccc(CC2CC(=O)N(CC(=O)N[C@@H](CC(=O)O)C(=O)N[C@H](C(=O)O)c3ccccc3)C2=O)cc1 (stereo partly drawn) [Example 1, {3-[4-(Aminoiminomethyl)benzyl]-2,5-dioxopyrrolidin-1-yl}acetyl-L-aspartyl-L-phenylglycine]",Ki,[2],0.043 µM
same,IC50,[1]; [3],0.2 µM
same,IC50,[1]; [4],0.09 µM
O=C(O)C[C@H](NC(=O)CN1C(=O)CC(CC2CCNCC2)C1=O)C(=O)N[C@H](C(=O)O)c1ccccc1 (stereo partly shown) [Example 19],IC50,[1]; [3],4 µM
same,IC50,[1]; [4],1 µM
"COC(=O)C(CCc1ccccc1)NC(=O)CN1C(=O)CC(Cc2ccc(C(=N)N)cc2)C1=O (racemic) [Example 13, {3-[4-(Aminoiminomethyl)benzyl]-2,5-dioxopyrrolidin-1-yl}acetyl-D,L-homophenylalanine methyl ester]",IC50,[1]; [3],100 µM
same,IC50,[1]; [4],100 µM

# From patent US5658935A, “Heterocycles, their preparation and their use” (Hoechst Aktiengesellschaft, priority 1993, dated 1997)
